Test system: C57BL/6 mice
Assay: In vivo translation efficacy of hEPO-encoding mRNA-LNPs (serum hEPO ELISA)
Settings: 1 μg mRNA i.v., 4, 8, 24 and 48 h
Experimental: Two reporters were selected to determine in vivo protein production: firefly luciferase (FLuc) and human erythropoietin (hEPO). The mRNA encoding each gene was obtained by IVT using T7 RNA polymerase for co-transcriptional capping with m^7Gppp^5′SAmpG and m^7GpppAmpG as the reference cap structure. 500 μl or 1000 μl of the IVT mix (for obtaining mRNA encoding hEPO or FLuc, respectively) contained following components at indicated final concentration: transcription buffer with 2 mM spermidine and Bis-Tris pH 6.5, 1 U/μl RNase inhibitor (RiboLock, ThermoFisher Scientific), 5 mM ATP, CTP and UTP, 4 mM GTP, 10 mM DTT, 25 mM MgCl2, 0.002 U/μl inorganic pyrophosphatase (ThermoFisher Scientific), 10 mM m^7GpppAmpG or m^7Gppp^5’SAmpG, 40 ng/μl linearized plasmid as the DNA template and 0.125 μg/μl T7 RNA polymerase (in-house prepared). All components were gently mixed by pipetting and incubated for one hour at 37°C. After DNA template removal, obtained mRNA was initially purified using oligo(dT)25 resin, as previously described, and concentrated by ultrafiltration (Amicon Ultra-15 50K or 100K, Millipore) prior loading on preparative column. […] Eluate quality was analyzed on 1 × TBE 1.2% agarose gel, and the fractions containing mRNA of the highest purity were combined, desalted by ultrafiltration (Amicon Ultra-15 50K or 100K, Millipore), and precipitated. […]

## CO[C@@H]1[C@H](OP(=O)(O)OC[C@H]2O[C@@H](n3cnc4c(=O)[nH]c(N)nc43)[C@H](O)[C@@H]2O)[C@@H](CSP(=O)([O-])OP(=O)(O)OP(=O)(O)OC[C@H]2O[C@@H](n3c[n+](C)c4c(O)nc(N)nc43)[C@H](O)[C@@H]2O)O[C@H]1n1cnc2c(N)ncnc21 [Compound 8, m^7Gppp^5’SAmpG]
MC3 LNP
  serum hEPO protein expression versus m^7GpppAmpG-capped mRNA (in words): slight increase in protein expression
SM-102 LNP
  serum hEPO protein expression versus m^7GpppAmpG-capped mRNA (in words): no significant differences

— publication PMC11472058, “Trinucleotide cap analogs with triphosphate chain modifications: synthesis, properties, and evaluation as mRNA capping reagents” (Nucleic Acids Research, 2024)
